Assay results reported in patent US10669312B2, “Peptide for suppressing osteoclast differentiation and use thereof” (CAREGEN CO., LTD., priority 2013, dated 2020).
Entries after “also recorded” stand apart in the source; their conditions may differ. Ends that are not written are not given here.

Columns and labels:
Format in all cases: cell-based
osteopontin (OPN) = assay: Osteoblast differentiation marker mRNA expression (PCR), OPN; conditions: MC3T3-E1 cells, 10 or 50 μg/ml peptide, two days
Procedure: (§1) MC3T3-E1 cells were treated with 10 or 50 μg/ml of the peptides synthesized in synthetic example 1 to induce the differentiation for two days, and tests for verifying the mRNA expression of osteoblast differentiation markers, such as osteocalcin (OCN), osteoprotegerin (OPG), bone sialoprotein (BSP), and osteopontin (OPN), were conducted. Target-specific primer sequences used in PCR were as follows: OCN forward primer sequence, [NT] (SEQ ID NO:15) and OCN reverse primer sequence, [NT] (SEQ ID NO:16) (annealing temperature, 60° C.); OPG forward primer sequence, [NT] (SEQ ID NO:17) and OPG reverse primer sequence, [NT] (SEQ ID NO:18) (annealing temperature, 60° C.); BSP forward primer sequence, [NT] (SEQ ID NO:19) and BSP reverse primer sequence, [NT] (SEQ ID NO:20) (annealing temperature, 60° C.); OPN forward primer sequence, [NT] ID NO:21) and OPN reverse primer sequence, [NT] ID NO:22) (annealing temperature, 50° C.). […] Therefore, the peptides of the present invention can promote osteoblast differentiation by increasing the genetic expressions of OCN, OPG, BSP, and OPN, which are osteoblast differentiation markers.

Raw264.7 cells = assay: Osteoclast differentiation inhibition, TRAP staining; conditions: 10 ng/ml RANKL, 50 ng/ml TNF-α, 1 or 10 μg/ml peptide, five days
Procedure: In order to analyze the IL-3-like action and the inhibitory action of the peptides of SEQ ID NO: 1 and SEQ ID NO: 2, synthesized in synthetic example 1, TRAP staining was conducted using Raw264.7 strain differentiable into osteoclasts while referring to methods, such as tartrate-resistant acid phosphatase staining (Rizzino, et al. Cancer Res. 48:4266(1988)).
Raw264.7 cell lines (ATCC) were cultured in Dulbecco's modified Eagle's medium (DMEM, Gibco, U.S.A.) supplemented with 10% fetal bovine serum (FBS, Sigma) using each 250 ml-flask for tissue culture. The cultured cell lines were carefully detached from the bottom of the culture container using a pipette, followed by centrifugation, to obtain only cell precipitates. The cell precipitates were re-suspended in DMEM culture medium supplemented with 10% FBS, and then added to a […] for tissue culture plate at 1×10^4 cells per each well. For the induction of differentiation, the blank sample and RAW264.7 cells were treated with 10 ng/ml RANKL, 50 ng/ml TNF-α, and 1 μg/ml or 10 μg/ml synthesized peptides dissolved in 10% distilled water in a sterile state, […] After 72 hours, the medium was changed with the same culture liquid, and then the blank sample and the cells were treated with 10 ng/ml RANKL, 50 ng/ml TNF-α, and 1 μg/ml or 10 μg/ml synthesized peptides, and then cultured under the same conditions for 48 hours. […]

TRAP = TRAP activity in differentiated Raw264.7 cells, absorbance 405 nm; conditions: 10 ng/ml RANKL, 50 ng/ml TNF-α, 1 or 10 μg/ml peptide, five days
Procedure: Raw264.7 cells were treated in combination with 10 ng/ml RANKL, 50 ng/ml TNF-α, or the 1 or 10 μg/ml peptide synthesized in synthetic example 1 to induce differentiation for five days, and then the inhibition degree of the activity of TRAP, an osteoclast differentiation marker, was tested. After culture, the culture liquid was removed, and then 100 μl of a lysis buffer (20 mM tris buffer, 3% triton X-100) was added to disrupt cell walls. A reaction solution is prepared from 500 μl of a citrate solution (18 mM citric acid, 9 mM sodium chloride, 12 mM surfactant; pH 3.5), 50 μl of a tartrate solution, and 500 μl of a 20 mM phosphate substrate. 100 μl of the lysate and 100 μl of the reaction solution were added in the same amount, and then the reaction was conducted at 37° C. for 30 minutes. For colorimetric analysis, the absorbance was determined at 405 nm using a spectrophotometer. It was validated that, in cases where the treatment with the peptide of SEQ ID NO: 1 or SEQ ID NO: 2 together with RANKL and TNF-α, the peptides inhibited the activity of TRAP, which is an osteoclast differentiation marker, in a concentration-dependent manner (FIGS. 4a and 4b).

osteocalcin (OCN) = assay: Osteoblast differentiation marker mRNA expression (PCR), OCN; conditions: MC3T3-E1 cells, 10 or 50 μg/ml peptide, two days
Procedure: as §1

osteoprotegerin (OPG) = assay: Osteoblast differentiation marker mRNA expression (PCR), OPG; conditions: MC3T3-E1 cells, 10 or 50 μg/ml peptide, two days
Procedure: as §1

pSmad1/5/8 = assay: Osteogenic differentiation signal, Smad1/5/8 phosphorylation, western blotting; conditions: MC3T3-E1 cells, serum-starved 24 hours, 10 μg/ml peptide, 30 minutes
Procedure: In order to verify whether pSmad1/5/8, which is a signal involved in osteogenic differentiation, was activated by the present peptides, MC3T3-E1 cells were dispensed into 6-well plates at 2×10^5 cells, and then cultured for 24 hours under the conditions of 37° C. and 5% CO2. After 24 hours, the medium was changed with a serum-free medium, and then the cells were starved for 24 hours, treated with the 10 μg/ml peptides or 50 ng/ml BMP2, used as a positive control, for 30 minutes, washed with PBS, and dissolved in a lysis buffer, thereby obtaining proteins, which were then subjected to western blotting.

bone sialoprotein (BSP) = assay: Osteoblast differentiation marker mRNA expression (PCR), BSP; conditions: MC3T3-E1 cells, 10 or 50 μg/ml peptide, two days
Procedure: as §1

Sequence | mRNA level of osteopontin (OPN) (osteopontin (OPN)) | RANKL- and TNF-α-induced differentiation of Raw264.7 into osteoclasts (Raw264.7 cells) | activity of TRAP, osteoclast differentiation marker (TRAP) | mRNA level of osteocalcin (OCN) (osteocalcin (OCN)) | mRNA level of osteoprotegerin (OPG) (osteoprotegerin (OPG)) | phosphorylation of Smad1/5/8 (pSmad1/5/8) | mRNA level of bone sialoprotein (BSP) (bone sialoprotein (BSP))
NCSNMICEIITH (cysteine pairing not given here) [SEQ ID NO: 1, IL-3-derived synthetic peptide, 12 amino acids] | increased | inhibit | inhibited | increased | increased | led to the phosphorylation of Smad1/5/8; also recorded: increased | increased
RRKLTFYLKTLE [SEQ ID NO: 2, IL-3-derived synthetic peptide, 12 amino acids] | increased | inhibit | inhibited | increased | increased | led to the phosphorylation of Smad1/5/8; also recorded: increased | increased
